Test results as given in patent US10087448B2, “Synthetic lethality in cancer” (The Governors of the University of Alberta, priority 2010, dated 2018).
Entries after “also recorded” stand apart in the source; their conditions may differ.

Legend:
[1] = tested on: HCT116 PTEN wildtype cells (HCT116 parental and Neo124 vector only); experiment: Colony forming assay under PNKP inhibition; assay type: cell-based; details: PTEN proficient HCT116, increasing concentrations
Procedure: (§1) The effect of survival of simultaneous disruption of two proteins was conducted using the clonogenic survival assay. To allow cells time to adhere to the plates, cells were seeded 24 h in advance. Cells were treated with the PNKP inhibitor A12B4C3 for 9-14 consecutive days in triplicate at 0 μM, 0.1 μM, 1 μM, and 10 μM final concentration where 100 cells were plated for the 0 μM, 0.1 μM and 1 μM concentration groups and 300 cells in the 10 μM concentration group. Colonies were then stained with a crystal violet containing 20% methanol for one hour after which the plates were washed in warm water and left to dry overnight. Colonies of 50+ cells were then counted using an automated colony counter (Oxford Optronix, Oxford, UK).

[2] = tested on: HCT116 PTEN deleted cells (#22 and #35); experiment: Colony forming assay under PNKP inhibition; assay type: cell-based; details: PTEN deleted HCT116, increasing concentrations
Procedure: as §1

[3] = tested on: PC3 cells reconstituted with WT PTEN or p.K289E; experiment: Survival of PC3 cells in response to PNKP inhibition; assay type: cell-based; details: WT PTEN and p.K289E reconstituted PC3, 12-16 days
Procedure: as §1
(§2) To investigate the feasibility of taking advantage of the newly identified partnership between PTEN and PNKP, we subjected the prostate cancer cell line, PC3 (naturally PTEN^−/−) to an increasing concentration of the PNKP inhibitor A12B4C3 (3) over a period of 12-16 days.

[4] = tested on: PC3 cell lines lacking functional PTEN (p.R55fs*1, WT RAD51, p.BABE.puro, p.C124S, PC3 parental); experiment: as above; assay type: cell-based; details: doses ≥10 μM, 12-16 days
Procedure: as §1, §2

[5] = tested on: Karpas 299 cells (naturally SHP-1−/−); experiment: Cell proliferation assay with ALCL cell lines (Alamar Blue), PNKP inhibition; assay type: cell-based; details: Karpas 299 (SHP-1−/−), approximately 10 μM, 12-16 days
Procedure: (§3) Karpas 299 or SUPM2 cells were plated in 96-well format at a concentration of 5,000 cells/100 μL in complete RPMI. Increasing concentrations of the PNKP inhibitor A12B4C3 was added to each well at a constant concentration of DMSO and left to incubate for 12-16 days. 11 μL of 440 μM Alamar Blue was then loaded onto the plates and left to incubate for 24-48 hours after which fluorescence was determined as described above.

[6] = tested on: SUPM2 cells (naturally SHP-1+/+); experiment: as above; assay type: cell-based; details: SUPM2 (SHP-1+/+), approximately 10 μM, 12-16 days
Procedure: as §3

HCT116 cells = experiment: Colony-forming assay with γ-radiation (synthetic sickness); assay type: cell-based
Procedure: as §1
For the indicated colony-forming assays, cells were treated with 0, 1, 2, 4, 6, or 8 Gy of γ-radiation (^60Co Gammacell; Atomic Energy of Canada Limited, Ottawa, Canada).
These HCT116 cells were then subjected to additional testing to determine if disruption of PNKP in PTEN negative cells would hypersensitize these cells to ionizing radiation. These assays to determine ‘synthetic sickness’ were done using […] A12B4C3, which was added to the cells 24 h before irradiation in a colony-forming assay. After one day the cells were subjected to 0, 1, 2, 4, 6, or 8 Gy of γ-radiation. […]

[7] = tested on: A549(Scramble) and A549δPNKP cells; experiment: Mode of cell death determination (Hoescht 33342, Ethidium Homodimer III, Annexin V-FITC triple stain); assay type: cell-based, human; details: 100 μM, 24 to 72 hours
Procedure: A549(Scramble) or A549δPNKP cells were grown on coverslips in complete DMEM/F12 and were either transfected with ASN or SHP-1. Another control subjected these cell lines to 100 μM 5-(p-Bromobenzylidine)-α-isopropyl-4-oxo-2-thioxo-3-thiozolidineacetic acid (BH3I-1, Sigma-Aldrich, Oakville, ON), which is a known apoptosis inducer. The cells were grown under each condition for the indicated length of time before being subjected to a triple stain of Hoescht 33342, Ethidium Homodimer III and Annexin V-FITC (Biotium, Hayward, Calif.). Hoescht 33342 is an uncharged DNA stain that will stain the nuclei of healthy and non-healthy cells alike, however, Ethidium Homodimer III is a highly positively charged DNA stain that cannot readily enter cells unless there is a loss of membrane integrity. […]
To identify the mechanism in which cells undergo synthetic lethality upon simultaneous disruption of SHP-1 and PNKP, A549(Scramble) and A549δPNKP cells were grown on coverslips and transiently transfected with ASN or SHP-1 siRNA (FIGS. 21A and 21C, respectively). […] Cells were then simultaneously stained with Hoescht 33342, EthidiumHomodimer III and Annexin V-FITC, which fluoresce at different wavelengths (absorbance/emission; 350/461 nm, 528/617 nm, and 492/514 nm, respectively). […]

| Compound | survival under PNKP inhibition [1] | survival under PNKP inhibition [2] | survival [3] | survival [4] | survival [5] | survival [6] | sensitivity to ionizing radiation (HCT116 cells; PNKP independently disrupted (PTEN proficient HCT116), 2 M A12B4C3 added 24 h before 0-8 Gy γ-radiation) | sensitivity to ionizing radiation (HCT116 cells; PTEN negative HCT116, 2 M A12B4C3 added 24 h before 0-8 Gy γ-radiation) | apoptotic cells [7] |
| --- | --- | --- | --- | --- | --- | --- | --- | --- | --- |
| CCCCCCCCCCC(O)C1C=CC2C(=O)N(c3ccccc3)C(=O)C2N1Nc1ccc([N+](=O)[O-])cc1 (stereo not drawn) [A12B4C3, 2-(1-hydroxyundecyl)-1-(4-nitrophenylamino)-6-phenyl-6,7a-dihydro-1H-pyrrolo[3,4-b]pyridine-5,7(2H,4aH)-dione] | no effect | sensitive to PNKP disruption | lethality under PNKP inhibition was rescued | marked decrease in survival | marked decrease in survival | remain viable | increase in sensitivity to ionizing radiation | increase in the sensitivity to ionizing radiation |  |
| CC(C)C(C(=O)O)N1C(=O)C(=Cc2ccc(Br)cc2)SC1=S (stereo not drawn) [BH3I-1, 5-(p-Bromobenzylidine)-α-isopropyl-4-oxo-2-thioxo-3-thiozolidineacetic acid] |  |  |  |  |  |  |  |  | substantial increase in the occurrence of apoptotic cells; also recorded: increase in apoptotic cells beginning at 24 hours and continuing on through 72 hours |
